# Read-outs that look alike come from different tables or passages of the source.
# What was measured:
# [1] = Single-dose crossover pharmacokinetic study of 17-HPC, SQ (upper anterior thigh) vs IM (gluteus maximus) injection; format: in vivo, human; details: for AUC(0-t) / Cmax: female, human, single dose, healthy postmenopausal women, plasma; for AUC(0-t): read-out: AUC0-t, LS Geometric Mean; for Cmax: read-out: Cmax, LS Geometric Mean
# Description: An open-label, randomized, single-dose, two-period, two-treatment, four-sequence, crossover study was conducted to compare equal 250 mg doses of 17-HPC injections, 250 mg/ml given as either a 1 mL deep IM injection to the upper outer quadrant of the gluteus maximus or a 1 mL SQ injection to the upper anterior thigh. The study was conducted with 12 healthy, non-tobacco using postmenopausal adult women. The subjects were given the SQ injection in one study period and the IM injection in the other study period according to the four-sequence randomization schedule. Blood was taken at 4, 24, 48, 72, 96, 120 and 144-hours post-treatment, and plasma concentrations of 17-HPC were measured. The interval between doses was 21 days. The analytical data were used to estimate the pharmacokinetic parameters AUC0-t, Cmax, and Tmax.
# [2] = Randomized bioavailability study of 17-HPC, SC injection in triceps area (1.1 or 1.2 mL) vs IM injection (1.0 mL); format: in vivo, human; details: for AUC(0-t) / AUC(0-inf) / Cmax / Tmax / half-life: female, human, plasma; for Cmax: healthy postmenopausal women, read-out: Cmax, geometric mean (geometric CV); for Tmax: read-out: Tmax, median; for half-life: read-out: t½, geometric mean (geometric CV) (converted)
# Description: A randomized study is conducted to compare the bioavailability and injection site pain when 17-HPC, 250 mg/mL, is administered as a single 1.0 mL IM injection (250 mg) in the gluteus maximus or a 1.1 (275 mg) or 1.2 mL (300 mg) SQ injection in the triceps area of healthy post-menopausal women. Patients are randomized into two groups by route of administration. Group A receives a 1.0 mL IM injection of 17-HPC into the upper outer quadrant of the gluteus maximus. Group B receives a 1.1 or 1.2 mL SC injection into the upper outer thigh or arm (triceps area). Patient reported outcomes of injection site pain are collected to assess the safety and usability of SQ administration, either by medical staff or for self-administration of 17-HPC.
# All patients have blood drawn prior to administration of 17-HPC, and at 2, 4, 8, 12, 18 and 24 hours post dose, and again at approximately the same time as dosing on days 2-7, 14, 21, and 28.
# [3] = Solubility of HPC in benzyl benzoate/castor oil mixtures; format: physicochemical; details: for solubility: benzyl benzoate/castor oil mixture, oil or lipid, read-out: mg HPC/mL solution (solubility)
# Description: Weight percent of BB is relative to the castor oil.
# [4] = 250 mg SQ thigh vs 250 mg IM gluteus maximus
# [5] = subcutaneous, SQ injection 250 mg (1 mL) upper anterior thigh
# [6] = IM injection 250 mg (1 mL) gluteus maximus
# [7] = IM 1.0 mL (250 mg) gluteus maximus
# [8] = SC 1.1 mL (275 mg) triceps area
# [9] = SC 1.2 mL (300 mg) triceps area
# [10] = 25° C., 63.33 wt % BB relative to castor oil
compound,measurement,setting,value
"CCCCCC(=O)O[C@]1(C(C)=O)CC[C@H]2[C@@H]3CCC4=CC(=O)CC[C@]4(C)[C@H]3CC[C@@]21C [17-HPC, 17-alpha-hydroxyprogesterone caproate]",AUC0-t LSGM Ratio A (SQ) vs B (IM),[1]; [4],73.85%
same,Cmax LSGM Ratio A (SQ) vs B (IM),[1]; [4],68.39%
same,AUC(0-t),[1]; [5],458 ng·h/mL
same,Cmax,[1]; [5],4.2 ng/mL
same,AUC(0-t),[1]; [6],621 ng·h/mL
same,Cmax,[1]; [6],6.14 ng/mL
same,"[…]z, geometric mean (geometric CV)",[2]; [7],0.0031 (37.3) [11] 1/hr
same,"[…]z, geometric mean (geometric CV)",[2]; [8],0.0031 (26.8) [17] 1/hr
same,"[…]z, geometric mean (geometric CV)",[2]; [9],0.0031 (38.4) [14] 1/hr
same,"AUC(0-t) Least Squares Geometric Mean Ratio, Estimate",[2]; SC (1.1 mL) vs. IM (1.0 mL),103.64%
same,"AUC(inf) Least Squares Geometric Mean Ratio, Estimate",[2]; SC (1.1 mL) vs. IM (1.0 mL),100.71%
same,"Cmax Least Squares Geometric Mean Ratio, Estimate",[2]; SC (1.1 mL) vs. IM (1.0 mL),123.42%
same,"AUC(0-t) Least Squares Geometric Mean Ratio, Estimate",[2]; SC (1.1 mL) vs. SC (1.2 mL),94.40%
same,"AUC(inf) Least Squares Geometric Mean Ratio, Estimate",[2]; SC (1.1 mL) vs. SC (1.2 mL),91.63%
same,"Cmax Least Squares Geometric Mean Ratio, Estimate",[2]; SC (1.1 mL) vs. SC (1.2 mL),107.50%
same,"AUC(0-t) Least Squares Geometric Mean Ratio, Estimate",[2]; SC (1.2 mL) vs. IM (1.0 mL),109.78%
same,"AUC(inf) Least Squares Geometric Mean Ratio, Estimate",[2]; SC (1.2 mL) vs. IM (1.0 mL),109.91%
same,"Cmax Least Squares Geometric Mean Ratio, Estimate",[2]; SC (1.2 mL) vs. IM (1.0 mL),114.81%
same,AUC(0-t),"[2]; im, 250 mg, IM 1.0 mL (250 mg) gluteus maximus, read-out: AUC(0-t), Least Squares Geometric Mean",2680 ng·h/mL
same,AUC(0-t),"[2]; im, 250 mg, IM 1.0 mL (250 mg) gluteus maximus, read-out: AUC(0-t), geometric mean (geometric CV)",2680 ng·h/mL
same,AUC(0-inf),"[2]; im, 250 mg, IM 1.0 mL (250 mg) gluteus maximus, read-out: AUC(inf), Least Squares Geometric Mean",2910 ng·h/mL
same,AUC(0-inf),"[2]; im, 250 mg, IM 1.0 mL (250 mg) gluteus maximus, read-out: AUC(inf), geometric mean (geometric CV)",2910 ng·h/mL
same,AUC(0-t),"[2]; sc, 275 mg, SC 1.1 mL (275 mg) arm, read-out: AUC(0-t), Least Squares Geometric Mean",2770 ng·h/mL
same,AUC(0-inf),"[2]; sc, 275 mg, SC 1.1 mL (275 mg) arm, read-out: AUC(inf), Least Squares Geometric Mean",2930 ng·h/mL
same,AUC(0-t),"[2]; sc, 275 mg, SC 1.1 mL (275 mg) triceps area, read-out: AUC(0-t), geometric mean (geometric CV)",2770 ng·h/mL
same,AUC(0-inf),"[2]; sc, 275 mg, SC 1.1 mL (275 mg) triceps area, read-out: AUC(inf), geometric mean (geometric CV)",2940 ng·h/mL
same,AUC(0-t),"[2]; sc, 300 mg, SC 1.2 mL (300 mg) arm, read-out: AUC(0-t), Least Squares Geometric Mean",2940 ng·h/mL
same,AUC(0-inf),"[2]; sc, 300 mg, SC 1.2 mL (300 mg) arm, read-out: AUC(inf), Least Squares Geometric Mean",3200 ng·h/mL
same,AUC(0-t),"[2]; sc, 300 mg, SC 1.2 mL (300 mg) triceps area, read-out: AUC(0-t), geometric mean (geometric CV)",2940 ng·h/mL
same,AUC(0-inf),"[2]; sc, 300 mg, SC 1.2 mL (300 mg) triceps area, read-out: AUC(inf), geometric mean (geometric CV)",3200 ng·h/mL
same,Cmax,[2]; [7],7.08 ng/mL
same,Tmax,[2]; [7],120 h
same,half-life,[2]; [7],220 h
same,Cmax,[2]; [8],8.74 ng/mL
same,Tmax,[2]; [8],24 h
same,half-life,[2]; [8],223 h
same,Cmax,[2]; [9],8.13 ng/mL
same,Tmax,[2]; [9],48 h
same,half-life,[2]; [9],225 h
same,Avg. HPC wt % (solubility),"[3]; 5° C., 53.01 wt % BB relative to castor oil",18.60 wt %
same,Avg. HPC wt % (solubility),"[3]; 5° C., 63.33 wt % BB relative to castor oil",20.31 wt %
same,Avg. HPC wt % (solubility),"[3]; 5° C., 69.43 wt % BB relative to castor oil",21.62 wt %
same,Avg. HPC wt % (solubility),"[3]; 5° C., 75.59 wt % BB relative to castor oil",23.00 wt %
same,Avg. HPC wt % (solubility),"[3]; 5° C., 81.79 wt % BB relative to castor oil",24.65 wt %
same,Avg. HPC wt % (solubility),"[3]; 5° C., 87.91 wt % BB relative to castor oil",25.22 wt %
same,Avg. HPC wt % (solubility),"[3]; 15° C., 53.01 wt % BB relative to castor oil",20.49 wt %
same,Avg. HPC wt % (solubility),"[3]; 15° C., 63.33 wt % BB relative to castor oil",22.96 wt %
same,Avg. HPC wt % (solubility),"[3]; 15° C., 69.43 wt % BB relative to castor oil",24.28 wt %
same,Avg. HPC wt % (solubility),"[3]; 15° C., 75.59 wt % BB relative to castor oil",25.97 wt %
same,Avg. HPC wt % (solubility),"[3]; 15° C., 81.79 wt % BB relative to castor oil",27.32 wt %
same,Avg. HPC wt % (solubility),"[3]; 15° C., 87.91 wt % BB relative to castor oil",28.30 wt %
same,Avg. HPC wt % (solubility),"[3]; 25° C., 53.01 wt % BB relative to castor oil",24.08 wt %
same,Avg. HPC wt % (solubility),[3]; [10],27.17 wt %
same,Avg. HPC wt % (solubility),"[3]; 25° C., 69.43 wt % BB relative to castor oil",28.76 wt %
same,Avg. HPC wt % (solubility),"[3]; 25° C., 75.59 wt % BB relative to castor oil",30.62 wt %
same,Avg. HPC wt % (solubility),"[3]; 25° C., 81.79 wt % BB relative to castor oil",31.98 wt %
same,Avg. HPC wt % (solubility),"[3]; 25° C., 87.91 wt % BB relative to castor oil",33.26 wt %
same,solubility data over multiple days,"[3]; BB/castor oil with and without benzyl alcohol, 5, 15, 25° C., over 5 days",fairly constant
same,solubility,"[3]; 5 °C, 5° C., 53.01 wt % BB relative to castor oil",200 mg/mL
same,solubility,"[3]; 5 °C, 5° C., 63.33 wt % BB relative to castor oil",222 mg/mL
same,solubility,"[3]; 5 °C, 5° C., 69.43 wt % BB relative to castor oil",238 mg/mL
same,solubility,"[3]; 5 °C, 5° C., 75.59 wt % BB relative to castor oil",253 mg/mL
same,solubility,"[3]; 5 °C, 5° C., 81.79 wt % BB relative to castor oil",273 mg/mL
same,solubility,"[3]; 5 °C, 5° C., 87.91 wt % BB relative to castor oil",284 mg/mL
same,solubility,"[3]; 15 °C, thermodynamic from solid, 15° C., 53.01 wt % BB relative to castor oil",220 mg/mL
same,solubility,"[3]; 15 °C, thermodynamic from solid, 15° C., 63.33 wt % BB relative to castor oil",254 mg/mL
same,solubility,"[3]; 15 °C, thermodynamic from solid, 15° C., 69.43 wt % BB relative to castor oil",269 mg/mL
same,solubility,"[3]; 15 °C, thermodynamic from solid, 15° C., 75.59 wt % BB relative to castor oil",289 mg/mL
same,solubility,"[3]; 15 °C, thermodynamic from solid, 15° C., 81.79 wt % BB relative to castor oil",306 mg/mL
same,solubility,"[3]; 15 °C, thermodynamic from solid, 15° C., 87.91 wt % BB relative to castor oil",320 mg/mL
same,solubility,"[3]; 25 °C, 25° C., 69.43 wt % BB relative to castor oil",321 mg/mL
same,solubility,"[3]; 25 °C, 25° C., 75.59 wt % BB relative to castor oil",347 mg/mL
same,solubility,"[3]; 25 °C, 25° C., 81.79 wt % BB relative to castor oil",363 mg/mL
same,solubility,"[3]; 25 °C, 25° C., 87.91 wt % BB relative to castor oil",382 mg/mL
same,solubility,"[3]; 25 °C, thermodynamic from solid, 25° C., 53.01 wt % BB relative to castor oil",262 mg/mL
same,solubility,[3]; [10],303 mg/mL
